Data taken from PMC7111419 (European Journal of Medicinal Chemistry, 2019).
Read-outs that look alike come from different tables or passages of the source.

What was measured:
βGLU [1] = details: cited from earlier work
E. coli cells = details: 100 μM; cited from earlier work
male Fischer rats = details: cited from earlier work; for reduction of aberrant crypt foci formation: 5 weeks, vs azoxymethane-controls
βGLU [2] = type: biochemical
newborns = details: cited from earlier work
male Wister rats = details: cited from earlier work; for tumour size: from 2 cm
bacterial βGLU [3] = details: cited from earlier work
[4] = test system: whole human gut bacterial βGLU (eight bacterial isolates); details: cited from earlier work
E. coli βGLU [5] = details: cited from earlier work
rat liver βGLU = details: cited from earlier work
male ICR mice = details: cited from earlier work
male Wistar rats = details: cited from earlier work
bovine liver βGLU = details: cited from earlier work
E. coli βGLU [6] = assay: E. coli βGLU inhibition; type: biochemical
3T3 cells = details: cited from earlier work
bacterial βGLU [7] = type: biochemical
BALB/cJ mice = details: 10 μg twice daily with 50 mg/kg CPT-11 once daily; cited from earlier work
[8] = cited from earlier work
Wistar rats = details: 0.8 μg inhibitor, 3 mg/kg diclofenac; cited from earlier work
neutrophil-derived βGLU = details: 1 μM; cited from earlier work
salivary βGLU = details: 16 subjects with aggressive periodontitis; cited from earlier work
[9] = […] test concentration, US 7,294,330 B2

O=C(Cn1c(-c2ccccn2)nc2ccccc21)c1ccc(Cl)cc1 [Compound 4-Cl]
IC50 (βGLU [1]): 32.1 µM
cytotoxicity to E. coli cells (E. coli cells): cytotoxicity

O=C(Cn1c(-c2ccccn2)nc2ccccc21)c1ccc(F)cc1 [Compound 4-F]
IC50 (βGLU [1]): 26.3 µM

CC(=O)O[C@@H]1C(=O)O[C@H]2[C@@H]1OC(=O)[C@@H]2OC(C)=O [Compound 6, 2,5-di-O-acetyl-D-glucaro-1,4:6,3-dilactone]
reduction of aberrant crypt foci formation (male Fischer rats; 0.5% in diet): over 48.6%
reduction of aberrant crypt foci formation (male Fischer rats; 2% in diet): > 55.3%
inhibition of colon carcinogenesis (male Fischer rats; post-initiation phase, 32 weeks treatment (D-GL: 2%)): over 70%

COC(=O)[C@]1(Cc2ccc(O)c(C=O)c2)OC(=O)C(O)=C1c1ccc(O)cc1 [Compound 8]
fold stronger potency than prenylated isomer (9) (βGLU [2]): 16 fold
fold superior potency compared to D-SAL (βGLU [2]): 8 fold

N[C@@H](CC(=O)O)C(=O)O [Compound 10, L-aspartic acid]
fold more potent than D-isomer (βGLU [2]): 100 fold
inhibition of βGLU (βGLU [1]; 100 μM): ~86%
transcutaneous bilirubin levels, lower than control (newborns; 6 doses, 180 mg/5 ml of water/day, first week of life): 25%
adverse effects (newborns): no adverse effects

O=c1cc(-c2ccc(O)c(O)c2)oc2cc(O)cc(O)c12 [Compound 11, Luteolin]
bacterial βGLU activity (male Wister rats; 0.1, 0.2 or 0.3 mg/kg body weight/day p.o., 30 weeks, vs DMH-controls): significantly reduced
reduction in tumour incidence (male Wister rats): up to 90%
tumour size (male Wister rats; initiation stage): 0.25 cm
tumour size (male Wister rats; post-initiation stage): 0.50 cm

O=c1c(O)c(-c2ccc(O)cc2)oc2cc(O)cc(O)c12 [Compound 19, Kaempferol]
IC50 (bacterial βGLU [3]): 36.5 µM

CC(C)=CC[C@]12Oc3cc(O)c([C@H]4C=C(C)C[C@H](c5ccc(O)cc5O)[C@H]4C(=O)c4ccc(O)cc4O)c(O)c3C(=O)[C@@]1(O)Oc1cc(O)ccc12 [Compound 20, Sanggenon C]
IC50 [4]: 12.5 µM
inhibition [4]: > 70%

CC(C)=CCc1c(-c2ccc(O)cc2O)oc2c([C@H]3C=C(C)C[C@@H](c4ccc(O)cc4O)[C@@H]3C(=O)c3ccc(O)cc3O)c(O)cc(O)c2c1=O [Compound 21, Kuwanon G]
IC50 [4]: 7.4 µM
inhibition [4]: > 70%

C=CCc1ccc(O)c(OC)c1 [Compound 39, eugenol]
IC50 (βGLU [1]): 616.68 µg/mL

O=c1c2cc(O)c(O)cc2oc2cc(O)c([C@@H]3O[C@H](CO)[C@@H](O)[C@H](O)[C@H]3O)c(O)c12 [Compound 40, mangiferin]
IC50 (βGLU [1]): 38 µM

O=c1c(-c2ccc(O)cc2)coc2cc(O)ccc12 [Compound 41, daidzein]
IC50 (E. coli βGLU [5]): 410 µg/mL
IC50 (rat liver βGLU): 500 µg/mL

COc1c(O[C@@H]2O[C@H](CO)[C@@H](O)[C@H](O)[C@H]2O)cc2occ(-c3ccc(O)cc3)c(=O)c2c1O [Compound 43, tectoridin]
hepatoprotection (male ICR mice; 100 mg/kg intraperitoneal): failure to provide desired hepatoprotection
serum AST, ALT and LDH levels relative to CCl4-treated controls (male ICR mice; 100 mg/kg oral): significantly lowering
presence in serum (male ICR mice; 250 mg/kg oral, only tectorigenin detected): absence in the serum

CC1(C)[C@@H](O)CC[C@]2(C)[C@H]3C(=O)C=C4[C@@H]5C[C@@](C)(C(=O)O)CC[C@]5(C)CC[C@@]4(C)[C@]3(C)CC[C@@H]12 [Compound 44, 18β-glycyrrhetinic acid]
IC50 (E. coli βGLU [5]): 510 µM
IC50 (rat liver βGLU): 42.5 µM
AST, ALT and LDH levels compared to CCl4-controls (male Wistar rats; 100 mg/kg intraperitoneal): significant reduction

CC1(C)[C@@H](O[C@H]2O[C@H](C(=O)O)[C@@H](O)[C@H](O)[C@H]2O[C@@H]2O[C@H](C(=O)O)[C@@H](O)[C@H](O)[C@H]2O)CC[C@]2(C)[C@H]3C(=O)C=C4[C@@H]5C[C@@](C)(C(=O)O)CC[C@]5(C)CC[C@@]4(C)[C@]3(C)CC[C@@H]12 [Compound 45, glycyrrhizinic acid]
AST, ALT and LDH levels compared to CCl4-controls (male Wistar rats; 100 mg/kg oral): significant reduction
hepatoprotection (male Wistar rats; intraperitoneal administration): did not provide hepatoprotection

C[C@]12C=C/C(=N\O)C=C1CC[C@H]1[C@@H]3[C@@H](O)C[C@](C)(O)[C@@]3(C)CC[C@@H]12 [Compound 49]
fold superior than Z-isomer (βGLU [2]): 2 fold

NC[C@@H]1C[C@@H]2[C@H](O)[C@@H](O)[C@H](O)[C@@H](C(=O)O)N2C(=O)O1 [Compound 71]
IC50 (bovine liver βGLU): 218 µM

NC[C@@H]1OC(=O)N2[C@H]1[C@H](O)[C@@H](O)[C@H](O)[C@H]2C(=O)O [Compound 73]
IC50 (bovine liver βGLU): 259 µM

COc1ccc(C[C@@H]2CCC[C@@H]3[C@H](O)[C@@H](O)[C@H](CO)N23)cc1 [Compound 74]
inhibition (E. coli βGLU [5]; 1 mM): < 50%

CCCCCCO[C@H]1C[C@](Cl)(CO)[C@@H](O)[C@H](O)[C@H]1NC(C)=O [Compound 75]
IC50 (E. coli βGLU [5]): 170 µM

O=C(O)[C@@H]1[C@@H](O)[C@H](O)[C@@]2(O)CC[C@@H]1N2 [Compound 77, uronic-noeurostegine]
selectivity for E. coli βGLU over bovine liver βGLU (E. coli βGLU [6]): 38 fold
Ki (E. coli βGLU [5]): 0.06 µM

CCCC[C@H]1NC[C@@H](O)[C@@H](O)[C@H](O)[C@H]1O [Compound 85]
IC50 (E. coli βGLU [5]): 261 µM

O=C(O)[C@H]1NC[C@H](O)[C@@H](O)[C@@H]1O [Compound 94]
selectivity for bovine liver βGLU (bovine liver βGLU): 3 fold

Oc1ccccc1-c1nc2cc(Cl)cc(Cl)c2[nH]1 [Compound 111]
fold potency vs D-SAL (βGLU [2]): 11 fold

O=C(Cn1c(-c2ccccn2)nc2ccccc21)c1ccccc1[N+](=O)[O-] [Compound 112]
IC50 (βGLU [1]): 4.06 µM

COc1ccccc1-c1nnc(-c2ccc(C(=O)NNS(=O)(=O)c3cc(Cl)c(Cl)cc3Cl)cc2)o1 [Compound 116]
IC50 (βGLU [1]): 1.4 µM

O=C(N/N=C/c1c(O)cc(O)cc1O)c1cc2cc(Cl)ccc2[nH]1 [Compound 128]
fold stronger than corresponding oxadiazole variant of compound 115 library (βGLU [2]): 3 fold

O=C(N/N=C/c1ccccc1F)c1cc2cc(Cl)ccc2[nH]1 [Compound 129]
fold stronger than corresponding oxadiazole variant of compound 115 library (βGLU [2]): 43 fold

Oc1cccc(C(c2c[nH]c3cc(Br)ccc23)c2c[nH]c3ccc(Br)cc23)c1O (centres unmarked) [Compound 133]
cytotoxicity (3T3 cells): moderate cytotoxicity

O=C(/C=C/c1ccc(O)cc1)O[C@@H]1O[C@H](Oc2cc(O)c3c(=O)cc(-c4ccc(O)cc4)oc3c2)[C@@H](O)[C@H](O)[C@H]1O [Compound 148]
fold potency vs D-SAL (bacterial βGLU [7]): 10 fold
cytotoxicity (3T3 cells): totally non-cytotoxic

CCOc1ccc(NC(=S)N(CCO)Cc2cc3cc(C)cc(C)c3[nH]c2=O)cc1 [Compound 151]
CPT-11 induced diarrhoea (BALB/cJ mice): alleviated Irinotecan (CPT-11) induced diarrhoea
half-life [8]: < 1 h

COc1ccc(NC(=S)N(CCO)Cc2cc3cc(C)cc(C)c3[nH]c2=O)cc1 [Compound 152]
fold increased potency vs glucaro-δ-lactam 61 (E. coli βGLU [5]): 100 fold
fold reduction in severity of diclofenac-induced anastomotic leakage (Wistar rats): 2 fold

COc1ccc(-c2nc(O)c3ccccc3n2)cc1OC [Compound 160]
fold potency vs D-SAL (E. coli βGLU [6]): 76 fold

O=C1CCCCCC/C=C/CCCCCCC1 [Compound 191]
inhibition of E. coli βGLU (E. coli βGLU [5]; 0.001 wt%): 95.8%
inhibition of E. coli βGLU (E. coli βGLU [5]; 0.1 wt% in dipropylene glycol): 100%

O=S(=O)(NCc1cccc(Cl)c1)c1cc(Cl)c(Oc2cccc(N3CCNCC3)c2)s1 [Compound 193]
IC50 (bacterial βGLU [3]; US 9617.239 B2): equipotent
IC50 (bacterial βGLU [3]; US 9617.239 B2, listed as C00012): 0.02 µM

O=c1c(-c2ccc(O)cc2)coc2cc(O[C@@H]3O[C@H](CO)[C@@H](O)[C@H](O)[C@H]3O)ccc12 [daidzin]
IC50 (E. coli βGLU [5]): inactive
IC50 (rat liver βGLU): inactive

C[C@]12C=CC(=O)C=C1CC[C@@H]1[C@@H]2CC[C@@]2(C)[C@H]1CC[C@]2(C)O [dianabol, reference compound]
IC50 (βGLU [1]): inactive

O=c1c(-c2ccc(O)cc2)coc2c([C@@H]3O[C@H](CO)[C@@H](O)[C@H](O)[C@H]3O)c(O)ccc12 [puerarin]
IC50 (E. coli βGLU [5]): inactive
IC50 (rat liver βGLU): inactive

O=C(O)c1ccccc1O [salicylic acid, reference compound]
inhibition (βGLU [1]; 1 mM): 24.77%
inhibition (neutrophil-derived βGLU): 25%

O=C([O-])[C@H](O)[C@@H](O)[C@H](O)[C@H](O)CO.O=C([O-])[C@H](O)[C@@H](O)[C@H](O)[C@H](O)CO.[Zn+2] [zinc gluconate]
inhibition of E. coli βGLU (E. coli βGLU [5]; [9]): 97%

NCC(=O)[O-].NCC(=O)[O-].[Zn+2] [zinc glycinate]
inhibition of E. coli βGLU (E. coli βGLU [5]; [9]): 99%

doxycycline hyclate
effect on salivary βGLU activity (salivary βGLU): inefficient

tectorigenin [Compound 42]
IC50 (βGLU [1]): 300 µg/mL
serum AST, ALT and LDH levels relative to CCl4-treated controls (male ICR mice; 50 mg/kg intraperitoneal pre-treatment): significantly lowering
